From publication PMC9218685, “Legume Plant Peptides as Sources of Novel Antimicrobial Molecules Against Human Pathogens” (Frontiers in Molecular Biosciences, 2022)
In brackets after ≈: the same amount, converted by molar mass. Entries after “also recorded” stand apart in the source; their conditions may differ. Where two headings read alike, the source gives them in different places. Ends that are not written are not given here. Peptide text beside a SMILES is read from it.

Assays:
[1] = system: Acinetobacter baumannii (ATCC 17978); experiment: microbe, parasite or virus in culture; type: cell-based; settings: for MBC: read-out: MBC, minimal bactericidal concentration against A. baumannii
In short: (§1)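 MBC read as lowest peptide concentration giving no viable bacteria; ~10^7 log-phase cells, PPB pH 7.4, 3 h treatment, 2-fold dilutions from 25 µM.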

A. baumannii = experiment: Scanning electron microscopy of cell morphology; type: cell-based, Acinetobacter baumannii; settings: 30 min treatment, peptide 1.6 or 3.125 µM as in Figure 3 legend
Procedure: (§2) A. baumannii and C. albicans were grown and treated the same way as for the membrane permeability assay. Cells were then fixed with 2.5% (v/v) glutaraldehyde in phosphate buffered saline (PBS, pH 7.4). 5 μl of the above bacterial and yeast suspensions were spotted on a silicon disk coated with 0.01% Poly-L-Lysine. The filters were washed twice with PBS and gradually dehydrated with ethanol series (30, 50, 70, 80%, and three times 100% ethanol, each for minimum 30 min). The samples were dried with a critical point dryer (K850: Quorum Technologies Ltd.), followed by 12 nm gold coating and observed under a JEOL JSM-7100F/LV scanning electron microscope.
FIGURE 3 Viability, membrane permeability and morphology of A. baumannii cells after NCR treatment (A–L) SYTO9/PI staining observed with confocal microscope, (M–X) Cell morphology observed with SEM. (A,M) untreated control, (B,N) CaNCR13, 3.125 µM, (C,O) CaNCR63, 3.125 µM, (D,P) CaNCR63_1-20, 3.125 µM, (E,Q) CaNCR63_15-34, 3.125 µM, (F,R) MsNCR443, 3.125 µM, (G,S) MsNCR463_16-35, 1.6 µM, (H,T) MsNCR463_17-30, 3.125 µM, (I,U) PsNCR349, 1.6 µM, (J,V) PsNCR349_26-50, 3.125 µM, (K,W) PsNCR349_31-50, 3.125 µM, (L,X) PsNCR352, 1.6 µM.

[2] = system: Lambda DNA/HindIII marker; experiment: Gel retardation assay (DNA aggregation); type: binding; settings: 100 ng DNA, 5 or 10 µM peptide in water, 30 min at room temperature, 1% agarose gel
Procedure: Interactions of peptides with DNA was visualized with gel retardation assay ([Hsu et al., 2005]). 100 ng Lambda DNA/HindIII marker (ThermoFisher Scientific) was incubated with 0, 5 or 10 µM synthetic NCRs or NCR derivatives in water for 30 min at room temperature and then loaded into 1% agarose gel. Electrophoresis of DNA fragments separated the mobile HindIII-digested DNA fragments while the aggregated DNA remained in the loading wells.
FIGURE 6 Aggregation of DNA by NCR peptides. Lambda HindIII digested DNA was incubated without (0) or with NCR peptides at 5 or 10 μM concentration.

C. albicans = experiment: Scanning electron microscopy of cell morphology; type: cell-based, Candida albicans; settings: 30 min treatment, peptide 1.6, 3.125 or 25 µM as in Figure 4 legend
Procedure: as §2

[3] = system: Candida albicans W01 strain; experiment: microbe, parasite or virus in culture; type: cell-based; settings: read-out: MFC, minimal fungicidal concentration against C. albicans
Text: The following pathogenic bacterial strains were used: The Gram-positive Enterococcus faecalis (ATCC 29212), Staphylococcus aureus (HNCMO112011), Listeria monocytogenes (ATCC 19111) and the Gram-negative Pseudomonas aeruginosa (ATCC 27853), Escherichia coli (ATCC 8739), Salmonella enterica (ATCC 13076), Klebsiella pneumoniae (NCTC 13440), Acinetobacter baumannii (ATCC 17978) obtained from the ATCC (United States) and NCTC (National Collection of Type Cultures–England). For the antifungal experiment the Candida albicans W01 strain ([Ördögh et al., 2014]) was used. Antimicrobial activities of peptides against ∼10^7 log phase bacteria were tested in Potassium-Phosphate Buffer (PPB, pH 7.4) as described by [Jenei et al. (2020)] while anti-Candida assays were done according to [Szerencsés et al. (2021)]. The two-fold dilution series of peptides ranged from 25 μM to 0.125 μM, while that of the antibiotics ampicillin (Merck) and miconazole (Duchefa Biochemie) from […] to 0.1 μM. The lowest concentration of the antimicrobial agents, which completely eliminated viable bacteria or C. albicans were considered as the minimal bactericidal concentration (MBC) and minimal fungicidal concentration (MFC).

[4] = system: E. coli, S. enteritidis, P. aeruginosa, L. monocytogenes, S. aureus, E. faecalis, K. pneumoniae and A. baumannii; experiment: Antimicrobial activity assay, spectrum over the eight tested pathogenic bacteria; type: cell-based; settings: 3 h treatment of ~10^7 log phase bacteria, peptides 25 to 0.8 µM; active = MBC ≤25 µM
In short: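 Log-phase bacteria (~10^7) treated 3 h with NCR peptides in potassium-phosphate buffer pH 7.4, two-fold dilutions from 25 µM to 0.8 µM. MBC is the lowest concentration completely eliminating viable bacteria. Strains: E. faecalis ATCC 29212, S. aureus HNCMO112011, L. monocytogenes ATCC 19111, P. aeruginosa ATCC 27853, E. coli ATCC 8739, S. enterica ATCC 13076, K. pneumoniae NCTC 13440, A. baumannii ATCC 17978.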

[5] = system: Salmonella enterica (ATCC 13076); type: cell-based; settings: ATCC 13076, 3 h
In short: as §1

[6] = system: Staphylococcus aureus (HNCMO112011); type: cell-based; settings: HNCMO112011, 3 h
In short: as §1

[7] = system: Klebsiella pneumoniae (NCTC 13440); type: cell-based; settings: NCTC 13440, 3 h
In short: as §1

[8] = system: Escherichia coli (ATCC 8739); type: cell-based; settings: ATCC 8739, 3 h
In short: as §1

[9] = system: Listeria monocytogenes (ATCC 19111); type: cell-based; settings: ATCC 19111, 3 h
In short: as §1

[10] = system: Pseudomonas aeruginosa (ATCC 27853); type: cell-based; settings: ATCC 27853, 3 h
In short: as §1

[11] = ~10^7 log phase bacteria, Potassium-Phosphate Buffer pH 7.4, 3 h treatment, two-fold dilution series, lowest concentration completely eliminating viable bacteria
[12] = C. albicans W01, two-fold dilution series, lowest concentration completely eliminating viable C. albicans

Row | Compound | MBC ([1]; ATCC 17978, 3 h, pH 7.4) [µM] | Morphology of A. baumannii cells by SEM (A. baumannii) | Aggregation of HindIII-digested λ DNA (DNA retained in loading wells) [2] | Morphology of C. albicans cells by SEM (C. albicans) | MFC ([3]; W01 strain) [µM] | Antibacterial spectrum over the eight tested bacterial strains [4] | MBC Acinetobacter baumannii ([1]; ATCC 17978, 3 h) [µM] | MBC [1, 11] [µM] | MBC Salmonella enterica [5] [µM] | MBC Staphylococcus aureus [6] [µM] | MBC Klebsiella pneumoniae [7] [µM] | MBC Escherichia coli [8] [µM] | MBC Listeria monocytogenes [9] [µM] | MBC Pseudomonas aeruginosa [10] [µM] | MFC [3, 12] [µM]
1 | CC[C@H](C)[C@H](NC(=O)[C@H](CCCCN)NC(=O)[C@H](CO)NC(=O)[C@H](CCCNC(=N)N)NC(=O)[C@@H]1CCCN1C(=O)[C@H](CS)NC(=O)[C@H](CCCNC(=N)N)NC(=O)[C@H](Cc1ccc(O)cc1)NC(=O)[C@H](CCCCN)NC(=O)[C@H](CCCCN)NC(=O)[C@H](CS)NC(=O)[C@H](CC(=O)O)NC(=O)[C@@H](NC(=O)[C@H](CCCNC(=N)N)NC(=O)[C@@H](NC(=O)[C@H](CCCCN)NC(=O)[C@H](CS)NC(=O)[C@@H](NC(=O)[C@H](CCSC)NC(=O)[C@@H](N)CCCCN)[C@@H](C)CC)[C@@H](C)O)C(C)C)C(N)=O [CaNCR63_1-20] (H-KMICKTRVDCKKYRCPRSKI-NH2; N-terminus assumed) | 6.25 (≈ 15.4 µg/mL) | rough cell surface, lysis and flattening of the cells | less efficient than either the full-length peptide or the C-terminal CaNCR63_15-34 | most similar to the control | 25 (≈ 61.4 µg/mL) |  |  |  |  |  |  |  |  |  | 
2 | CC[C@H](C)[C@H](NC(=O)[C@H](CS)NC(=O)[C@H](CCCCN)NC(=O)[C@@H](NC(=O)[C@@H](NC(=O)[C@H](Cc1ccccc1)NC(=O)[C@H](CCCCN)NC(=O)[C@H](CO)NC(=O)[C@H](CO)NC(=O)[C@@H](NC(=O)[C@H](CC(C)C)NC(=O)[C@H](CCCCN)NC(=O)[C@@H]1CCCN1C(=O)[C@H](CS)NC(=O)[C@H](CC(=O)O)NC(=O)[C@H](C)NC(=O)[C@@H](NC(=O)[C@@H](NC(=O)[C@H](CCCNC(=N)N)NC(=O)[C@H](CS)NC(=O)[C@H](CCC(=O)O)NC(=O)[C@@H](NC(=O)[C@H](CO)NC(=O)[C@@H](N)CCC(=O)O)[C@@H](C)CC)[C@@H](C)O)C(C)C)[C@@H](C)CC)C(C)C)[C@@H](C)CC)C(=O)N[C@@H](CCCCN)C(=O)N[C@@H](CCCCN)C(=O)N[C@@H](CCCNC(=N)N)C(=O)N[C@@H](CS)C(=O)N[C@H](C(=O)N[C@@H](C)C(=O)N[C@@H](CCC(N)=O)C(=O)N[C@@H](Cc1ccccc1)C(=O)N[C@@H](Cc1ccccc1)C(=O)N[C@@H](CCCCN)C(=O)O)C(C)C [MsNCR443] (H-ESIECRTVADCPKLISSKFVIKCIKKRCVAQFFK-OH; N-terminus assumed) |  | Filament-like structures | did not | aggregation of shrunken cells in a spider net like matrix | 6.25 (≈ 24.5 µg/mL) | broad-spectrum activity | 1.6 (≈ 6.27 µg/mL) | 6.25 (≈ 24.5 µg/mL) | 25 (≈ 98 µg/mL) | 12.5 (≈ 49 µg/mL) | 12.5 (≈ 49 µg/mL) | 1.6 (≈ 6.27 µg/mL) | 12.5 (≈ 49 µg/mL) | 6.25 (≈ 24.5 µg/mL) | 
3 | CC(C)[C@H](NC(=O)CNC(=O)[C@H](CCCNC(=N)N)NC(=O)[C@H](CCCCN)NC(=O)[C@@H]1CCCN1C(=O)[C@H](CCCCN)NC(=O)[C@@H](N)CS)C(=O)N[C@@H](CC(N)=O)C(=O)N[C@@H](Cc1ccccc1)C(=O)N[C@@H](CCCNC(=N)N)C(=O)N[C@@H](CS)C(=O)N[C@@H](CCCNC(=N)N)C(=O)N[C@@H](CCCCN)C(=O)NCC(=O)N[C@@H](CCCCN)C(=O)N[C@@H](CS)C(=O)N[C@@H](Cc1ccccc1)C(=O)N1CCC[C@H]1C(=O)N[C@H](C(=O)N[C@@H](CCCNC(=N)N)C(N)=O)C(C)C [MsNCR463_16-35] (H-CKPKRGVNFRCRKGKCFPVR-NH2; N-terminus assumed) |  | budding of vesicles; also recorded: Filament-like structures | DNA remained in the wells | Flattening of cells | 3.125 (≈ 7.43 µg/mL) |  |  | 1.6 (≈ 3.81 µg/mL) |  |  |  |  |  |  | 3.1 (≈ 7.37 µg/mL)
4 | CC[C@H](C)[C@H](NC(=O)[C@H](CCCNC(=N)N)NC(=O)[C@H](CCCNC(=N)N)NC(=O)[C@H](CS)NC(=O)[C@H](CCCNC(=N)N)NC(=O)[C@H](CCCNC(=N)N)NC(=O)[C@H](CCC(=O)O)NC(=O)[C@@H](NC(=O)[C@H](CS)NC(=O)[C@H](CC(C)C)NC(=O)[C@@H](NC(=O)[C@H](CCCCN)NC(=O)[C@H](Cc1ccc(O)cc1)NC(=O)[C@@H](NC(=O)[C@H](CCCCN)NC(=O)[C@H](CO)NC(=O)[C@H](CS)NC(=O)[C@H](CCCNC(=N)N)NC(=O)[C@H](Cc1ccccc1)NC(=O)[C@H](CCCNC(=N)N)NC(=O)[C@H](CC(C)C)NC(=O)[C@H](CS)NC(=O)[C@H](CC(=O)O)NC(=O)[C@H](CO)NC(=O)[C@H](CC(=O)O)NC(=O)[C@H](CC(N)=O)NC(=O)[C@H](CC(C)C)NC(=O)[C@H](CS)NC(=O)[C@H](CCCNC(=N)N)NC(=O)[C@H](CC(C)C)NC(=O)CNC(=O)[C@H](CO)NC(=O)[C@@H]1CCCN1)[C@@H](C)CC)C(C)C)[C@@H](C)CC)C(=O)N[C@@H](CCCCN)C(=O)N[C@@H](CCSC)C(=O)N[C@@H](Cc1c[nH]cn1)C(=O)O [PsNCR352] |  | cell form was preserved | did not | Flattening of cells; also recorded: aggregation of shrunken cells in a spider net like matrix |  | broad-spectrum activity |  | 6.25 (≈ 27.3 µg/mL) |  |  |  |  |  |  | 
5 | YNLKYCTNDKDCPTMMCFPPDVSKCVWKTCYCVQKHKKKLKKKKKLTFNM-OH (cysteines drawn unpaired) [PsNCR349] |  | Only dead cells were visible | DNA remained in the wells | Flattening of cells |  | broad-spectrum activity |  |  |  |  |  |  |  |  | 3.125
